Columns and labels:
[1] = molecular target: T1, telomerase (Homo sapiens, UniProt O14746); assay: TRAP / RTQ-TRAP telomerase activity assay in A549 cell-free lysates; type: biochemical; details: telomerase inhibition, mean ± SEM;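 also: telomerase activity measured in cell-free extracts of human A549 epithelial lung carcinoma cells, tested across a range of inhibitor concentrations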
T1 construct: A549 cells (human epithelial cell lung carcinoma, ATCC, Manassas, VA) were lysed in; host or cells: A549 cell lysate (CHAPS extract, 5 µg total protein)
T1 sequence (O14746 whole entry): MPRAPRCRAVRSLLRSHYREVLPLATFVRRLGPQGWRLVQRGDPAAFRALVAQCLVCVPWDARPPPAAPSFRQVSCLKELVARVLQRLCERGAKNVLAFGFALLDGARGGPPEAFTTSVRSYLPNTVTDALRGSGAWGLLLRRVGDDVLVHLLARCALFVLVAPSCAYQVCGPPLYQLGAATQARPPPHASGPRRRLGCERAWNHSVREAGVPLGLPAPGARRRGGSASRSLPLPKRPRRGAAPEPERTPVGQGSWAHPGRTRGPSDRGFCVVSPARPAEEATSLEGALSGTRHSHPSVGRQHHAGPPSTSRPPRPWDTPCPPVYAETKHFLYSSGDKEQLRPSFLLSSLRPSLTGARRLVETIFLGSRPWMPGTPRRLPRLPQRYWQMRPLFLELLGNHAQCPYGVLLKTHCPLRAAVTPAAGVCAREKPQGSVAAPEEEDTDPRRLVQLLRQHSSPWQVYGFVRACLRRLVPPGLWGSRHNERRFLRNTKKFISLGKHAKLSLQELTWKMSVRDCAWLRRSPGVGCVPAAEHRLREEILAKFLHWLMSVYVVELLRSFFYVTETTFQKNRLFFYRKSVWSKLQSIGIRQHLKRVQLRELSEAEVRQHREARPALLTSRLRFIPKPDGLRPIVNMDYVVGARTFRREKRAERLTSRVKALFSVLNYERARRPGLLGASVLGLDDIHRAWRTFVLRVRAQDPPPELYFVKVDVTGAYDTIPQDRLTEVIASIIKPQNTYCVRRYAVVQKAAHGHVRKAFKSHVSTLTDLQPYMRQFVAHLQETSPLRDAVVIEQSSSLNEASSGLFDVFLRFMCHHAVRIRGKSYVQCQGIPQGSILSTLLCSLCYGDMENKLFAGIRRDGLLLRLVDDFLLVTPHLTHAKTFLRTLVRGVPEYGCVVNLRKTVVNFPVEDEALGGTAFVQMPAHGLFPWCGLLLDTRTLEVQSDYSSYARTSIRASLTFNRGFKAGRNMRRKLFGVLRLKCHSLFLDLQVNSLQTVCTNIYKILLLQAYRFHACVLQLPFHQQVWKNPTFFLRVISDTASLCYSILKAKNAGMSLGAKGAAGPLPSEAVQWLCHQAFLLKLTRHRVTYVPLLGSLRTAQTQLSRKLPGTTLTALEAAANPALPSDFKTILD
T1 sequence (O60832 whole entry partner): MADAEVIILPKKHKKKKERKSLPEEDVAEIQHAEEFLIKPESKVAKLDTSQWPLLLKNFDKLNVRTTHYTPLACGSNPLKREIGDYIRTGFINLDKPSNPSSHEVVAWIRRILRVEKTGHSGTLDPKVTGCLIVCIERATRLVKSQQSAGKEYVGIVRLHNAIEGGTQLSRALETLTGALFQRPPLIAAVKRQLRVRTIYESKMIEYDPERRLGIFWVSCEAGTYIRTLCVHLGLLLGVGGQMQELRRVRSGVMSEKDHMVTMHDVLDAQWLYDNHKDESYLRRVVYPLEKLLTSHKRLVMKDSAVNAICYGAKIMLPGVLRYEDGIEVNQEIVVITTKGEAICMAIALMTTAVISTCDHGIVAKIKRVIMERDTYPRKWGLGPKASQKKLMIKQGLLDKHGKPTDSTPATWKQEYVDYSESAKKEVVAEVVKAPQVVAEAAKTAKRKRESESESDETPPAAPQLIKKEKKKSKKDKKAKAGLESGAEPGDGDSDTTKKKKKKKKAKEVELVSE
T1 sequence (Q9NX24 whole entry partner): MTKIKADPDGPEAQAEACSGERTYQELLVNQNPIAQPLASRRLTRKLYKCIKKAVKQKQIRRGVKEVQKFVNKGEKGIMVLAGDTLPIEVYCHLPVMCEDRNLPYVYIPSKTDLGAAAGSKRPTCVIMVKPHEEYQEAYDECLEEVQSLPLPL
T1 sequence (Q9NPE3 whole entry partner): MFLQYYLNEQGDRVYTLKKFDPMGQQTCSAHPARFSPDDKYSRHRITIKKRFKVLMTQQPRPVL
T1 sequence (Q9NY12 whole entry partner): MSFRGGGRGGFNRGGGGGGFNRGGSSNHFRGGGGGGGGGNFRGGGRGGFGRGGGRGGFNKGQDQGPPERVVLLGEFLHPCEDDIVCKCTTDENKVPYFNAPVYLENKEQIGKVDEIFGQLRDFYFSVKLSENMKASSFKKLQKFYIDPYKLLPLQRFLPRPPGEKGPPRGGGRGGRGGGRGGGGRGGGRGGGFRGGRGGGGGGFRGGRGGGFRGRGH
T1 sequence (Q9BUR4 whole entry partner): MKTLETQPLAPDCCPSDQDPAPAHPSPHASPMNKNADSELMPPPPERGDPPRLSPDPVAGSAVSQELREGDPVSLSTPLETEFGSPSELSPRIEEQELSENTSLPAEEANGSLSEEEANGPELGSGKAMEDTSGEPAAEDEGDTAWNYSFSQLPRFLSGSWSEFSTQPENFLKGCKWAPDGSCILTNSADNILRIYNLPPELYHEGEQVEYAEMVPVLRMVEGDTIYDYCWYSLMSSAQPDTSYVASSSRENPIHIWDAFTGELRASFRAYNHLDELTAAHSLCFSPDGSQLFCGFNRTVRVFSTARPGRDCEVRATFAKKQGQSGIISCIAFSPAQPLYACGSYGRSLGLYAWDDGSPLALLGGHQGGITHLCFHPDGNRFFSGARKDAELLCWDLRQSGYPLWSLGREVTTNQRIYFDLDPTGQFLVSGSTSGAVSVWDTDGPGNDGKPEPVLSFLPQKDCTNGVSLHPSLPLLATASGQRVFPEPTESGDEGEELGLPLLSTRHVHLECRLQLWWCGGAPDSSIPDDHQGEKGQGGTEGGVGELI
Experimental: In cell-free investigations, human A549 (epithelial cell lung carcinoma) lysates were utilized to evaluate telomerase with various inhibitor concentrations. […] The Telomeric Repeat Amplification Protocol (TRAP) [61] was used to evaluate the activity of telomerase, with some changes that we have previously described [62, 63]. A549 cells (human epithelial cell lung carcinoma, ATCC, Manassas, VA) were lysed in (10 mM) Tris-HCl, pH 7.5, (1 mM) EGTA, (1 mM) MgCl2, (5 mM) 2-mercaptoethanol, (0.1 mM) PMSF, (0.5%) CHAPS, and (10%) glycerol (Sigma-Aldrich, St. Louis, MO, USA) and centrifugation. The supernatants were kept at -80 °C. The BCA-1 Protein Assay Kit was used to assess the protein concentration in cell extracts (Sigma-Aldrich, St. Louis, MO, USA). […] To inactivate telomerase, the cells were elongated for 30 min at 37 °C and 10 min at 96 °C. Copy CX-primer was added to the elongation mixture along with 0.1 μL ([NT]) and 2.5 units Taq-polymerase, followed by the following PCR: 94 °C for 5 min; 30 cycles of 94 °C for 30 s, 50 °C for 30 s, and 72 °C for 40 s, and 72 °C for 5 min. […] The gels were stained with the SYBR Green I (Invitrogen, Grand Island, NY, USA), then photographed under the UV light in ChemiDocTM XRS imaging system and analyzed with GelAnalyzer 2010. Analysis was carried out using SPSS 25 software, a 2-way ANOVA, and a student's t-test (IBM SPSS Statistics, Armonk, NY, USA). The mean ± SEM is used to express the findings. The significance level was set at p ≤ 0.05. […] According to Sebaugh J.L., et al.'s guidelines, the values were assessed using the Prism 6 software (GraphPad, San Diego, CA, USA) [65].

[2] = molecular target: T2, telomerase inside living cancer cells A549 (Homo sapiens, UniProt O14746); assay: Living-cell TRAP assay, A549; type: cell-based; details: percent of control cells, 10 µM, 48 h
T2 construct: host or cells: A549
T2 sequence (O14746 whole entry): as the sequence (O14746 whole entry) above
T2 sequence (O60832 whole entry partner): as the sequence (O60832 whole entry partner) above
T2 sequence (Q9NX24 whole entry partner): as the sequence (Q9NX24 whole entry partner) above
T2 sequence (Q9NPE3 whole entry partner): as the sequence (Q9NPE3 whole entry partner) above
T2 sequence (Q9NY12 whole entry partner): as the sequence (Q9NY12 whole entry partner) above
T2 sequence (Q9BUR4 whole entry partner): as the sequence (Q9BUR4 whole entry partner) above
Experimental: (§1) The Telomeric Repeat Amplification Protocol (TRAP) [61] was used to evaluate the activity of telomerase, with some changes that we have previously described [62, 63]. A549 cells (human epithelial cell lung carcinoma, ATCC, Manassas, VA) were lysed in (10 mM) Tris-HCl, pH 7.5, (1 mM) EGTA, (1 mM) MgCl2, (5 mM) 2-mercaptoethanol, (0.1 mM) PMSF, (0.5%) CHAPS, and (10%) glycerol (Sigma-Aldrich, St. Louis, MO, USA) and centrifugation. The supernatants were kept at -80 °C. The BCA-1 Protein Assay Kit was used to assess the protein concentration in cell extracts (Sigma-Aldrich, St. Louis, MO, USA). […] To inactivate telomerase, the cells were elongated for 30 min at 37 °C and 10 min at 96 °C. Copy CX-primer was added to the elongation mixture along with 0.1 μL ([NT]) and 2.5 units Taq-polymerase, followed by the following PCR: 94 °C for 5 min; 30 cycles of 94 °C for 30 s, 50 °C for 30 s, and 72 °C for 40 s, and 72 °C for 5 min. TBE buffer and (12%) nondenaturing PAAG electrophoresis were used to visualize the PCR product. 10 μL of each sample was placed in each well of gel comb. The gels were stained with the SYBR Green I (Invitrogen, Grand Island, NY, USA), then photographed under the UV light in ChemiDocTM XRS imaging system and analyzed with GelAnalyzer 2010.

[3] = molecular target: T3, telomerase inside living cancer cells HCC44 (Homo sapiens, UniProt O14746); assay: Living-cell TRAP assay, HCC44; type: cell-based; details: percent of control cells, 10 µM, 48 h
T3 construct: host or cells: HCC44
T3 sequence (O14746 whole entry): as the sequence (O14746 whole entry) above
T3 sequence (O60832 whole entry partner): as the sequence (O60832 whole entry partner) above
T3 sequence (Q9NX24 whole entry partner): as the sequence (Q9NX24 whole entry partner) above
T3 sequence (Q9NPE3 whole entry partner): as the sequence (Q9NPE3 whole entry partner) above
T3 sequence (Q9NY12 whole entry partner): as the sequence (Q9NY12 whole entry partner) above
T3 sequence (Q9BUR4 whole entry partner): as the sequence (Q9BUR4 whole entry partner) above
Experimental: as §1

[4] = molecular target: T4, telomerase inside living cancer cells NCI-H23 (Homo sapiens, UniProt O14746); assay: Living-cell TRAP assay, NCI-H23; type: cell-based; details: percent of control cells, 10 µM, 48 h
T4 construct: host or cells: NCI-H23
T4 sequence (O14746 whole entry): as the sequence (O14746 whole entry) above
T4 sequence (O60832 whole entry partner): as the sequence (O60832 whole entry partner) above
T4 sequence (Q9NX24 whole entry partner): as the sequence (Q9NX24 whole entry partner) above
T4 sequence (Q9NPE3 whole entry partner): as the sequence (Q9NPE3 whole entry partner) above
T4 sequence (Q9NY12 whole entry partner): as the sequence (Q9NY12 whole entry partner) above
T4 sequence (Q9BUR4 whole entry partner): as the sequence (Q9BUR4 whole entry partner) above
Experimental: as §1

Row | SMILES | IC50 [1] | IC90 [1] | melting point | % Telomerase Activity in Cancer Cells [2] | % Telomerase Activity in Cancer Cells [3] | % Telomerase Activity in Cancer Cells [4]
1 | N#C/C(=C\c1ccc(C(F)(F)F)cc1)C(=O)Nc1sc2c(c1C#N)CCC2 [Compound 25a, (2E/2Z)-2-Cyano-N-{3-cyano-4H,5H,6H-cyclopenta[b]thiophen-2-yl}-3-[4-(trifluoromethyl)phenyl]prop-2-enamide] | 20.9 ± 0.7 µM | 109 ± 3.2 µM | 354 to 356 °C |  |  | 
2 | N#C/C(=C\c1ccc(C(F)(F)F)cc1)C(=O)Nc1sc2c(c1C#N)CCCC2 [Compound 25b, (2E)-2-Cyano-N-(3-cyano-4,5,6,7-tetrahydro-1-benzothiophen-2-yl)-3-[4-(trifluoromethyl)phenyl]prop-2-enamide] | 25.8 ± 1 µM | 140 ± 4.7 µM | 225 to 227 °C |  |  | 
3 | COc1ccc(/C=C(\C#N)C(=O)Nc2sc3c(c2C#N)CCC3)cc1OC [Compound 26a, (2E)-2-Cyano-N-{3-cyano-4H,5H,6H-cyclopenta[b]thiophen-2-yl}-3-(3,4-dimethoxyphenyl)prop-2-enamide] | 13.5 ± 0.6 µM | 154 µM |  |  |  | 
4 | COc1ccc(/C=C(\C#N)C(=O)Nc2sc3c(c2C#N)CCCC3)cc1OC [Compound 26b, (2E)-2-Cyano-N-(3-cyano-4,5,6,7-tetrahydro-1-benzothiophen-2-yl)-3-(3,4-dimethoxyphenyl)prop-2-enamide] | 53.6 ± 1.8 µM | 751 µM |  |  |  | 
5 | N#C/C(=C\c1ccc(Cl)c(Cl)c1)C(=O)Nc1sc2c(c1C#N)CCC2 [Compound 27a, (2E/2Z)-2-Cyano-N-{3-cyano-4H,5H,6H-cyclopenta[b]thiophen-2-yl}-3-(3,4-dichlorophenyl)prop-2-enamide] | 6.5 ± 0.3 µM | 164 µM | 329 to 331 °C |  |  | 
6 | N#C/C(=C\c1ccc(Cl)c(Cl)c1)C(=O)Nc1sc2c(c1C#N)CCCC2 [Compound 27b, (2E/2Z)-2-Cyano-N-(3-cyano-4,5,6,7-tetrahydro-1-benzothiophen-2-yl)-3-(3,4-dichlorophenyl)prop-2-enamide] | 12.5 ± 0.6 µM | 138 µM | 376 to 378 °C |  |  | 
7 | N#C/C(=C\c1cccc(Cl)c1Cl)C(=O)Nc1sc2c(c1C#N)CCC2 [Compound 28a, (2E/2Z)-2-Cyano-N-{3-cyano-4H,5H,6H-cyclopenta[b]thiophen-2-yl}-3-(2,3-dichlorophenyl)prop-2-enamide] | 6.7 ± 0.1 µM | 67.8 µM | 302 to 304 °C |  |  | 
8 | N#C/C(=C\c1cccc(Cl)c1Cl)C(=O)Nc1sc2c(c1C#N)CCCC2 [Compound 28b, (2E)-2-Cyano-N-(3-cyano-4,5,6,7-tetrahydro-1-benzothiophen-2-yl)-3-(2,3-dichlorophenyl)prop-2-enamide] | 8.3 ± 0.3 µM | 57.4 µM | 232 to 234 °C |  |  | 
9 | N#C/C(=C\c1ccc(N2CCCCC2)cc1)C(=O)Nc1sc2c(c1C#N)CCC2 [Compound 29a, (2E)-2-Cyano-N-{3-cyano-4H,5H,6H-cyclopenta[b]thiophen-2-yl}-3-[4-(piperidin-1-yl)phenyl]prop-2-enamide] | 1.7 ± 0.04 µM | 6.3 ± 0.3 µM |  | 22.1 ± 4.8% | 66.1 ± 2.4% | 28.2 ± 3.9%
10 | N#C/C(=C\c1ccc(N2CCCCC2)cc1)C(=O)Nc1sc2c(c1C#N)CCCC2 [Compound 29b, (2E)-2-Cyano-N-(3-cyano-4,5,6,7-tetrahydro-1-benzothiophen-2-yl)-3-[4-(piperidin-1-yl)phenyl]prop-2-enamide] | 4.8 ± 0.2 µM | 32.8 ± 1.5 µM | 262 to 264 °C |  |  | 
11 | N#C/C(=C\c1ccc(N2CCOCC2)cc1)C(=O)Nc1sc2c(c1C#N)CCC2 [Compound 30a, (2E)-2-Cyano-N-{3-cyano-4H,5H,6H-cyclopenta[b]thiophen-2-yl}-3-[4-(morpholin-4-yl)phenyl]prop-2-enamide] | 5.2 ± 0.2 µM | 112 ± 3.6 µM |  |  |  | 
12 | N#C/C(=C\c1ccc(N2CCOCC2)cc1)C(=O)Nc1sc2c(c1C#N)CCCC2 [Compound 30b, (2E)-2-Cyano-N-(3-cyano-4,5,6,7-tetrahydro-1-benzothiophen-2-yl)-3-[4-(morpholin-4-yl)phenyl]prop-2-enamide] | 5.9 ± 0.2 µM | 119 ± 4.6 µM | 246 to 248 °C |  |  | 
13 | CN1CCN(c2ccc(/C=C(\C#N)C(=O)Nc3sc4c(c3C#N)CCC4)cc2)CC1 [Compound 31a, (2E)-2-Cyano-N-{3-cyano-4H,5H,6H-cyclopenta[b]thiophen-2-yl}-3-[4-(4-methylpiperazin-1-yl)phenyl]prop-2-enamide] | 98.5 ± 3.8 µM | 200 µM |  |  |  | 
14 | CN1CCN(c2ccc(/C=C(\C#N)C(=O)Nc3sc4c(c3C#N)CCCC4)cc2)CC1 [Compound 31b, (2E)-2-Cyano-N-(3-cyano-4,5,6,7-tetrahydro-1-benzothiophen-2-yl)-3-[4-(4-methylpiperazin-1-yl)phenyl]prop-2-enamide] | 89.9 ± 3.6 µM | 165 µM | 257 to 259 °C |  |  | 
15 | COc1cc(/C=C(\C#N)C(=O)Nc2sc3c(c2C#N)CCC3)ccc1OCc1ccccc1 [Compound 32a, (2E)-3-[4-(Benzyloxy)-3-methoxyphenyl]-2-cyano-N-{3-cyano-4H,5H,6H-cyclopenta[b]thiophen-2-yl}prop-2-enamide] | 6.4 ± 0.2 µM | 177 µM | 233 to 235 °C |  |  | 
16 | COc1cc(/C=C(\C#N)C(=O)Nc2sc3c(c2C#N)CCCC3)ccc1OCc1ccccc1 [Compound 32b, (2E)-3-[4-(Benzyloxy)-3-methoxyphenyl]-2-cyano-N-(3-cyano-4,5,6,7-tetrahydro-1-benzothiophen-2-yl)prop-2-enamide] | 110 ± 3.7 µM | 181 µM | 220 to 222 °C |  |  | 
17 | Cc1nn(-c2ccccc2)cc1/C=C(\C#N)C(=O)Nc1sc2c(c1C#N)CCC2 [Compound 33a, (2E)-2-Cyano-N-{3-cyano-4H,5H,6H-cyclopenta[b]thiophen-2-yl}-3-(3-methyl-1-phenyl-1H-pyrazol-4-yl)prop-2-enamide] | 205 ± 4 µM | 643 µM |  |  |  | 
18 | Cc1nn(-c2ccccc2)cc1/C=C(\C#N)C(=O)Nc1sc2c(c1C#N)CCCC2 [Compound 33b, (2E)-2-Cyano-N-(3-cyano-4,5,6,7-tetrahydro-1-benzothiophen-2-yl)-3-(3-methyl-1-phenyl-1H-pyrazol-4-yl)prop-2-enamide] | 178 ± 3.3 µM | 574 µM | 256 to 258 °C |  |  | 
19 | N#C/C(=C\c1c[nH]nc1-c1ccccc1)C(=O)Nc1sc2c(c1C#N)CCC2 [Compound 34a, (2E)-2-Cyano-N-{3-cyano-4H,5H,6H-cyclopenta[b]thiophen-2-yl}-3-(3-phenyl-1H-pyrazol-4-yl)prop-2-enamide] | 189 ± 6.4 µM | 1080 µM | 226 to 228 °C |  |  | 
20 | N#C/C(=C\c1c[nH]nc1-c1ccccc1)C(=O)Nc1sc2c(c1C#N)CCCC2 [Compound 34b, (2E)-2-Cyano-N-(3-cyano-4,5,6,7-tetrahydro-1-benzothiophen-2-yl)-3-(3-phenyl-1H-pyrazol-4-yl)prop-2-enamide] | 38.8 ± 1 µM | 284 ± 6.6 µM | 263 to 265 °C |  |  | 
21 | N#C/C(=C\c1cccc2ccccc12)C(=O)Nc1sc2c(c1C#N)CCC2 [Compound 35a, (2E)-2-Cyano-N-{3-cyano-4H,5H,6H-cyclopenta[b]thiophen-2-yl}-3-(naphthalen-1-yl)prop-2-enamide] | 5.1 ± 0.2 µM | 31.1 ± 1.1 µM |  |  |  | 
22 | N#C/C(=C\c1cccc2ccccc12)C(=O)Nc1sc2c(c1C#N)CCCC2 [Compound 35b, (2E)-2-Cyano-N-(3-cyano-4,5,6,7-tetrahydro-1-benzothiophen-2-yl)-3-(naphthalen-1-yl)prop-2-enamide] | 5.3 ± 0.2 µM | 18.6 ± 0.9 µM |  |  |  | 
23 | N#C/C(=C\c1ccc2ccccc2c1)C(=O)Nc1sc2c(c1C#N)CCC2 [Compound 36a, (2E)-2-Cyano-N-{3-cyano-4H,5H,6H-cyclopenta[b]thiophen-2-yl}-3-(naphthalen-2-yl)prop-2-enamide] | 5.2 ± 0.2 µM | 34.9 ± 1.6 µM |  |  |  | 
24 | N#C/C(=C\c1cccc2c1OCO2)C(=O)Nc1sc2c(c1C#N)CCC2 [Compound 37a, (2E)-3-(2H-1,3-Benzodioxol-4-yl)-2-cyano-N-{3-cyano-4H,5H,6H-cyclopenta[b]thiophen-2-yl}prop-2-enamide] | 23.5 ± 0.9 µM | 137 ± 2.6 µM | 286 to 288 °C |  |  | 
25 | N#C/C(=C\c1cccc2c1OCO2)C(=O)Nc1sc2c(c1C#N)CCCC2 [Compound 37b, (2E)-3-(2H-1,3-Benzodioxol-4-yl)-2-cyano-N-(3-cyano-4,5,6,7-tetrahydro-1-benzothiophen-2-yl)prop-2-enamide] | 97.8 ± 2.6 µM | 174 µM | 226 to 228 °C |  |  | 
26 | N#C/C(=C\c1ccc2c(c1)OCO2)C(=O)Nc1sc2c(c1C#N)CCC2 [Compound 38a, (2E)-3-(2H-1,3-Benzodioxol-5-yl)-2-cyano-N-{3-cyano-4H,5H,6H-cyclopenta[b]thiophen-2-yl}prop-2-enamide] | 25.4 ± 1 µM | 282 µM | 219 to 221 °C |  |  | 
27 | N#C/C(=C\c1ccc2c(c1)OCO2)C(=O)Nc1sc2c(c1C#N)CCCC2 [Compound 38b, (2E)-3-(2H-1,3-Benzodioxol-5-yl)-2-cyano-N-(3-cyano-4,5,6,7-tetrahydro-1-benzothiophen-2-yl)prop-2-enamide] | 40.3 ± 1.7 µM | 339 µM | 204 to 206 °C |  |  | 
28 | N#C/C(=C\c1c[nH]c2ccccc12)C(=O)Nc1sc2c(c1C#N)CCC2 [Compound 39a, (2E)-2-Cyano-N-{3-cyano-4H,5H,6H-cyclopenta[b]thiophen-2-yl}-3-(1H-indol-3-yl)prop-2-enamide] | 2.5 ± 0.1 µM | 9.5 ± 0.3 µM | 284 to 286 °C |  |  | 
